Assays:
Format in all cases: in vivo, rat
[1] = system: urethane-anesthetized female rats; assay: Antagonism of the leak point pressure increase by WAY-161503 / WAY-163909, abdominal wall-electrically stimulating method (Example 3); conditions: for leak point pressure after drug administration / leak point pressure increase / leak point pressure before drug administration: i.v., mean ± SEM; for leak point pressure before drug administration: baseline
Experimental: (§1) SD female rats (body weight 180-350 g) were anesthetized with urethane (Wako Pure Chemical Industries, Ltd.), and the spinal cord was transected at T8-9 level to eliminate the reflex voiding. In addition, the nerve to the iliococcygeus muscle/pubococcygeus muscle on the one side was transected. During operation, halothane (Takeda Pharmaceutical Company Limited) anesthesia was added when necessary. A catheter (PE-90, Clay Adams) was inserted into the bladder and secured with a ligature, and the incised part of each of the abdominal muscle and skin was closed with sutures. The abdominal skin near the diaphragm was incised at two left and right positions to newly expose the abdominal muscle. An Evans Blue dye (Merck) solution was injected into the bladder, and the bladder volume was adjusted to 0.2-0.3 ml. The bladder catheter was connected to a pressure transducer, and the signals of the transducer were sent to a computer via an amplifier (blood pressure amplification unit AP-641G; NIHON KOHDEN) and an analog-to-digital converter (BIOPAC; MP100), and recorded on a hard disc. The data were analyzed on a computer using software (BIOPAC; AcqKnowledge). The exposed abdominal muscle was electrostimulated using an electrostimulator (SEN-3301; NIHON KODEN) and an isolator (SS-202J; NIHON KODEN), and the presence or absence of incontinence from the meatus urethra was observed. The electrostimulation was applied at a voltage of 2.5-50 V, duration of 0.5 milisec, and frequency 50 Hz for 1 sec, thereby gradually increasing the intravesical pressure. The peak intravesical pressure during stimulation of the abdominal wall was measured and, of the trials with observed incontinence, the lowest peak intravesical pressure was defined as the leak point pressure. Serotonin 5-HT receptor agonist, WAY-161503 (5-HT2C receptor agonist), WAY-163909 (5-HT2C receptor agonist), DOI (5-HT2A/2B/2C receptor agonist), mCPP (5-HT2B/2C receptor partial agonist), eltoprazine (5-HT1A/1B/2C receptor partial agonist), 8-OH-DPAT (5-HT1A receptor agonist), sumatryptan (5-HT1B/1D receptor agonist) and BW723C86 (5-HT2B receptor agonist) were intravenously administered, and the leak point pressure was compared before and after the administration. DOI, mCPP and eltoprazine were dissolved in saline, and other drugs were dissolved in DMA/PEG400 (1:1), and they were intravenously administered at 1 ml/kg and 0.5 mg/kg, respectively. Depending on the experiment, RS-102221 (serotonin 5-HT2C receptor antagonist) or SB221284 (serotonin 5-HT2B/2C receptor antagonist) was intravenously administered 5 min before WAY-161503 or WAY-163909 administration, and an antagonistic effect against the WAY-161503 or WAY-163909-induced increment of the leak point pressure was examined. RS-102221 and SB221284 were both dissolved in DMA/PEG400 (1:1) and intravenously administered at 0.5 ml/kg.

[2] = system: urethane-anesthetized female rats; assay: Antagonism of the leak point pressure increase by WAY-161503 / WAY-163909, direct bladder compression method (Example 4); conditions: for leak point pressure after drug administration / leak point pressure increase / leak point pressure before drug administration: i.v., mean ± SEM; for leak point pressure before drug administration: baseline; for dose at which suppression of the leak point pressure increase was significant: intravenous
Experimental: (§2) SD female rats (body weight 180-350 g) were anesthetized with urethane (Wako Pure Chemical Industries, Ltd.), and halothane (Takeda Pharmaceutical Company Limited) anesthesia was added when necessary during operation.
(§3) The spinal cord was transected at T8-9 level to eliminate the reflex voiding. The lower abdomen was incised in the median line, a catheter for intravesical pressure measurement (PE-90, Clay Adams) was inserted into the bladder and secured with a ligature, and the intravesical pressure was measured via a pressure transducer. Urine was emptized in advance by bilaterally pressing the bladder with two swabs, and a 0.1% Evans blue (Merck) solution (0.4 mL) was injected into the bladder. The bladder was gradually compressed bilaterally with two swabs, and the intravesical pressure upon saline leakage from the urethral orifice was measured and defined as a leak point pressure. The measurement of the leak point pressure was repeated, and the average value of the final five stable measures was taken as the value before drug administration. Thereafter, the drug was intravenously administered, the leak point pressure was measured again 20 min later, and the value after the drug administration was determined. DOI, mCPP and eltoprazine were dissolved in saline, and other drugs were dissolved in DMA/PEG400 (1:1), and intravenously administered at 1 ml/kg and 0.5 mg/kg, respectively. Depending on the experiment, RS-102221 or SB221284 (showing serotonin 5-HT2C receptor antagonist activity) was administered, 5 min later, WAY-161503 or WAY-163909 was administered, leak point pressure was measured 10 min later, and a competitive assay with the action of WAY-161503 or WAY-163909 was performed. RS-102221 and SB221284 were both dissolved in DMA/PEG400 (1:1), and intravenously administered at 0.5 ml/kg.

[3] = system: urethane-anesthetized female rats; assay: Leak point pressure by abdominal wall-electrically stimulating method, serotonin 5-HT receptor agonists (Example 3); conditions: for leak point pressure after drug administration / leak point pressure increase / leak point pressure before drug administration: i.v., mean ± SEM; for leak point pressure before drug administration: baseline
Experimental: as §1

[4] = system: urethane-anesthetized female rats; assay: Leak point pressure by direct compressing of the bladder (Example 4); conditions: for leak point pressure after drug administration / leak point pressure increase / leak point pressure before drug administration: i.v., mean ± SEM; for leak point pressure after drug administration: 20 min later; for leak point pressure before drug administration: baseline
Experimental: as §2, §3

[5] = antagonist 1 mg/kg, i.v. 5 min before WAY-161503 0.3 mg/kg
[6] = antagonist 3 mg/kg, i.v. 5 min before WAY-161503 0.3 mg/kg
[7] = antagonist 3 mg/kg, i.v. 5 min before WAY-163909 0.3 mg/kg
[8] = antagonist 1 mg/kg, i.v. + WAY-161503 0.3 mg/kg
[9] = antagonist 3 mg/kg, i.v. + WAY-161503 0.3 mg/kg
[10] = antagonist 3 mg/kg, i.v. + WAY-163909 0.3 mg/kg
[11] = antagonist 1 mg/kg, i.v. 5 min before WAY-163909 0.3 mg/kg
[12] = antagonist alone 3 mg/kg, agonist: solvent, WAY-161503 series
[13] = antagonist alone 3 mg/kg, agonist: solvent, WAY-163909 series

**Q.** How did the “leak point pressure after drug administration” value [1, 5] turn out when `COc1cc(OC)c(C(=O)CCCCN2CCC3(CC2)NC(=O)NC3=O)cc1NS(=O)(=O)c1ccc(C(F)(F)F)cc1` [RS102221] was run?
**A.** 68.5 ± 6.1 cmH2O

**Q.** What about the “leak point pressure increase” value [1, 5] of the same molecule?
**A.** 20.2 ± 4.1 cmH2O

**Q.** What about the “leak point pressure after drug administration” value [1, 6] of the same molecule?
**A.** 50.0 ± 6.3 cmH2O

**Q.** And the “leak point pressure increase” value [1, 6]?
**A.** 9.7 ± 2.1 cmH2O

**Q.** What about the “leak point pressure after drug administration” value [1, 7] of the same molecule?
**A.** 53.0 ± 7.0 cmH2O

**Q.** And the “leak point pressure increase” value [1, 7]?
**A.** 6.5 ± 2.4 cmH2O

**Q.** What about the “leak point pressure before drug administration” value [1, 8] of the same molecule?
**A.** 48.3 ± 7.5 cmH2O

**Q.** What about the “leak point pressure before drug administration” value [1, 9] of the same molecule?
**A.** 40.3 ± 5.5 cmH2O

**Q.** And the “leak point pressure before drug administration” value [1, 10]?
**A.** 46.5 ± 5.9 cmH2O

**Q.** What about the “dose at which suppression of the leak point pressure increase was significant” value ([1]; intravenous, against WAY-161503 (0.3 mg/kg, i.v.) or WAY-163909 (0.3 mg/kg, i.v.)) of the same molecule?
**A.** 3 mg/kg

**Q.** What about the “leak point pressure after drug administration” value [2, 5] of the same molecule?
**A.** 67.5 ± 5.4 cmH2O

**Q.** What about the “leak point pressure increase” value [2, 5] of the same molecule?
**A.** 12.8 ± 1.9 cmH2O

**Q.** And the “leak point pressure after drug administration” value [2, 11]?
**A.** 74.1 ± 3.4 cmH2O

**Q.** And the “leak point pressure increase” value [2, 11]?
**A.** 11.6 ± 2.4 cmH2O

**Q.** What about the “leak point pressure after drug administration” value [2, 6] of the same molecule?
**A.** 70.5 ± 1.8 cmH2O

**Q.** And the “leak point pressure increase” value [2, 6]?
**A.** 9.8 ± 2.7 cmH2O

**Q.** What about the “leak point pressure after drug administration” value [2, 7] of the same molecule?
**A.** 70.9 ± 3.0 cmH2O

**Q.** And the “leak point pressure increase” value [2, 7]?
**A.** 7.4 ± 1.4 cmH2O

**Q.** What about the “leak point pressure after drug administration” value [2, 12] of the same molecule?
**A.** 60.7 ± 6.2 cmH2O

**Q.** What about the “leak point pressure increase” value [2, 12] of the same molecule?
**A.** 3.8 ± 1.9 cmH2O

**Q.** And the “leak point pressure after drug administration” value [2, 13]?
**A.** 59.2 ± 6.6 cmH2O

**Q.** And the “leak point pressure increase” value [2, 13]?
**A.** −0.2 ± 2.1 cmH2O

**Q.** What about the “leak point pressure before drug administration” value [2, 8] of the same molecule?
**A.** 54.7 ± 6.1 cmH2O

**Q.** And the “leak point pressure before drug administration” value ([2]; antagonist 1 mg/kg, i.v. + WAY-163909 0.3 mg/kg)?
**A.** 62.5 ± 3.1 cmH2O

**Q.** And the “leak point pressure before drug administration” value [2, 9]?
**A.** 60.7 ± 3.3 cmH2O

**Q.** And the “leak point pressure before drug administration” value [2, 10]?
**A.** 63.6 ± 3.3 cmH2O

**Q.** What about the “leak point pressure before drug administration” value [2, 12] of the same molecule?
**A.** 56.8 ± 5.5 cmH2O

**Q.** What about the “leak point pressure before drug administration” value [2, 13] of the same molecule?
**A.** 59.4 ± 7.0 cmH2O

**Q.** And the “dose at which suppression of the leak point pressure increase was significant” value ([2]; against WAY-161503 (0.3 mg/kg, i.v.))?
**A.** 3 mg/kg

**Q.** And the “dose at which suppression of the leak point pressure increase was significant” value ([2]; against WAY-163909)?
**A.** 3 mg/kg

**Q.** How did the “leak point pressure after drug administration” value ([3]; 0.01 mg/kg) turn out when `COc1cc(CC(C)N)c(OC)cc1I` (centres unmarked) [DOI] was run?
**A.** 39.7 ± 5.2 cmH2O

**Q.** What about the “leak point pressure increase” value ([3]; 0.01 mg/kg) of the same molecule?
**A.** 3.2 ± 3.3 cmH2O

**Q.** What about the “leak point pressure after drug administration” value ([3]; 0.03 mg/kg) of the same molecule?
**A.** 50.1 ± 7.1 cmH2O

**Q.** And the “leak point pressure increase” value ([3]; 0.03 mg/kg)?
**A.** 5.9 ± 1.9 cmH2O

**Q.** And the “leak point pressure after drug administration” value ([3]; 0.1 mg/kg)?
**A.** 63.2 ± 5.7 cmH2O

**Q.** And the “leak point pressure increase” value ([3]; 0.1 mg/kg)?
**A.** 18.7 ± 2.9 cmH2O

**Q.** And the “leak point pressure after drug administration” value ([3]; 0.3 mg/kg)?
**A.** 67.9 ± 11.5 cmH2O

**Q.** And the “leak point pressure increase” value ([3]; 0.3 mg/kg)?
**A.** 27.2 ± 3.9 cmH2O

**Q.** And the “leak point pressure before drug administration” value ([3]; dose group 0.01 mg/kg)?
**A.** 36.4 ± 7.6 cmH2O

**Q.** What about the “leak point pressure before drug administration” value ([3]; dose group 0.03 mg/kg) of the same molecule?
**A.** 44.2 ± 7.2 cmH2O

**Q.** What about the “leak point pressure before drug administration” value ([3]; dose group 0.1 mg/kg) of the same molecule?
**A.** 44.5 ± 5.8 cmH2O

**Q.** And the “leak point pressure before drug administration” value ([3]; dose group 0.3 mg/kg)?
**A.** 40.7 ± 8.7 cmH2O

**Q.** What about the “effect on leak point pressure” value ([3]; intravenous administration) of the same molecule?
**A.** increased the leak point pressure significantly

**Q.** And the “leak point pressure after drug administration” value ([4]; 0.01 mg/kg)?
**A.** 68.5 ± 5.7 cmH2O

**Q.** And the “leak point pressure increase” value ([4]; 0.01 mg/kg)?
**A.** 2.9 ± 2.0 cmH2O

**Q.** What about the “leak point pressure after drug administration” value ([4]; 0.03 mg/kg) of the same molecule?
**A.** 71.1 ± 6.7 cmH2O

**Q.** What about the “leak point pressure increase” value ([4]; 0.03 mg/kg) of the same molecule?
**A.** 6.2 ± 2.9 cmH2O

**Q.** And the “leak point pressure after drug administration” value ([4]; 0.1 mg/kg)?
**A.** 79.5 ± 2.6 cmH2O

**Q.** What about the “leak point pressure increase” value ([4]; 0.1 mg/kg) of the same molecule?
**A.** 14.3 ± 2.8 cmH2O

**Q.** What about the “leak point pressure after drug administration” value ([4]; 0.3 mg/kg) of the same molecule?
**A.** 85.7 ± 6.0 cmH2O

**Q.** What about the “leak point pressure increase” value ([4]; 0.3 mg/kg) of the same molecule?
**A.** 18.7 ± 2.9 cmH2O

**Q.** What about the “leak point pressure after drug administration” value ([4]; 1 mg/kg) of the same molecule?
**A.** 82.9 ± 3.6 cmH2O

**Q.** What about the “leak point pressure increase” value ([4]; 1 mg/kg) of the same molecule?
**A.** 22.6 ± 2.5 cmH2O

**Q.** What about the “leak point pressure before drug administration” value ([4]; dose group 0.01 mg/kg) of the same molecule?
**A.** 65.7 ± 6.3 cmH2O

**Q.** And the “leak point pressure before drug administration” value ([4]; dose group 0.03 mg/kg)?
**A.** 64.9 ± 5.4 cmH2O

**Q.** What about the “leak point pressure before drug administration” value ([4]; dose group 0.1 mg/kg) of the same molecule?
**A.** 65.2 ± 3.6 cmH2O

**Q.** What about the “leak point pressure before drug administration” value ([4]; dose group 0.3 mg/kg) of the same molecule?
**A.** 67.0 ± 4.3 cmH2O

**Q.** And the “leak point pressure before drug administration” value ([4]; dose group 1 mg/kg)?
**A.** 60.3 ± 3.5 cmH2O

**Q.** What about the “effect on leak point pressure” value ([4]; intravenous administration) of the same molecule?
**A.** increased the leak point pressure significantly
